In ChEMBL document CHEMBL4507276 (2021):

What was measured:
[1] = biological target: 5-hydroxytryptamine receptor 6 (Homo sapiens) (UniProt P50406); conditions: Compound concentration 10.0 uM
[2] = biological target: MAP kinase-interacting serine/threonine-protein kinase 2 (Homo sapiens) (UniProt Q9HBH9); assay: MKNK2 (MNK2) Invitrogen selectivity data (BI); conditions: Compound concentration 3.0 uM
[3] = biological target: Serine/threonine-protein kinase 24 (Homo sapiens) (UniProt Q9Y6E0); assay: STK24 Invitrogen selectivity data (BI); conditions: Compound concentration 3.0 uM
Chain of Serine/threonine-protein kinase 24 (Homo sapiens) (Q9Y6E0 whole entry, looked up): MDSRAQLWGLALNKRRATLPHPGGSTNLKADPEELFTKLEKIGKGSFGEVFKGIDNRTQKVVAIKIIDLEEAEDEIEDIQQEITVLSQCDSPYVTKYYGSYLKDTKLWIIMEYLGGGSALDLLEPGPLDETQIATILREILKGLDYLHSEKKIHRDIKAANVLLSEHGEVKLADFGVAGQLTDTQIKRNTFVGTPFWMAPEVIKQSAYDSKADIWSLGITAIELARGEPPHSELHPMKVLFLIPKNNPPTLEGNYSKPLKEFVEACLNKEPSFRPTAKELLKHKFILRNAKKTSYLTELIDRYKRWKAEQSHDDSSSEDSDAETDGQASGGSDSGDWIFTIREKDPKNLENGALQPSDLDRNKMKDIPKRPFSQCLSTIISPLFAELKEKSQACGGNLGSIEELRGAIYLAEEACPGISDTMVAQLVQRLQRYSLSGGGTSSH

[4] = biological target: Interleukin-1 receptor type 1 (Mus musculus) (UniProt P13504); assay: IL-1 Eurofins-Panlabs selectivity data (BI); conditions: Compound concentration 10.0 uM
Chain of Interleukin-1 receptor type 1 (Mus musculus) (P13504 whole entry): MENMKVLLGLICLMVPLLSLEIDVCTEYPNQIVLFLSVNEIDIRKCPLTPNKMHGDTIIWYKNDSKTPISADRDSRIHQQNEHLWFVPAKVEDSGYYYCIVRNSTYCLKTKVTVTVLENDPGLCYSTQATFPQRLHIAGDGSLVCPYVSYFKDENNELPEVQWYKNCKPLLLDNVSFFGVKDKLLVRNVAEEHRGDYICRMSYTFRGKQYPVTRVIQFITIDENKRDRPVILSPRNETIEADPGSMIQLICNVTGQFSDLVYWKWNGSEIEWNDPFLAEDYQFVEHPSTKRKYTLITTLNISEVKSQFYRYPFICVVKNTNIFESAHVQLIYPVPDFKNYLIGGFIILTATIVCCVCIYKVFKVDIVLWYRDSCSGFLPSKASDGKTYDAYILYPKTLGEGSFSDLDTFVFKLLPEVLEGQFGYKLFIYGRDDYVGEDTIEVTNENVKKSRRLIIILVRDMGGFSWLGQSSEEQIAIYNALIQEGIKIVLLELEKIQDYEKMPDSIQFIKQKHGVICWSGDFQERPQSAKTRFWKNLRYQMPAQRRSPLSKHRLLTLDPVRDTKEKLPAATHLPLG

[5] = biological target: Tyrosine-protein kinase BTK (Homo sapiens) (UniProt Q06187); assay: BTK Invitrogen selectivity data (BI); conditions: Compound concentration 3.0 uM
[6] = biological target: Leukotriene B4 receptor 1 (Homo sapiens) (UniProt Q15722); assay: BLT1/H Cerep selectivity data (BI); conditions: Compound concentration 20.0 uM
[7] = biological target: 5-hydroxytryptamine receptor 2B (Homo sapiens) (UniProt P41595); assay: 5HT2B/HU Eurofins-Panlabs selectivity data (BI); conditions: Compound concentration 10.0 uM
Chain of 5-hydroxytryptamine receptor 2B (Homo sapiens) (P41595 whole entry): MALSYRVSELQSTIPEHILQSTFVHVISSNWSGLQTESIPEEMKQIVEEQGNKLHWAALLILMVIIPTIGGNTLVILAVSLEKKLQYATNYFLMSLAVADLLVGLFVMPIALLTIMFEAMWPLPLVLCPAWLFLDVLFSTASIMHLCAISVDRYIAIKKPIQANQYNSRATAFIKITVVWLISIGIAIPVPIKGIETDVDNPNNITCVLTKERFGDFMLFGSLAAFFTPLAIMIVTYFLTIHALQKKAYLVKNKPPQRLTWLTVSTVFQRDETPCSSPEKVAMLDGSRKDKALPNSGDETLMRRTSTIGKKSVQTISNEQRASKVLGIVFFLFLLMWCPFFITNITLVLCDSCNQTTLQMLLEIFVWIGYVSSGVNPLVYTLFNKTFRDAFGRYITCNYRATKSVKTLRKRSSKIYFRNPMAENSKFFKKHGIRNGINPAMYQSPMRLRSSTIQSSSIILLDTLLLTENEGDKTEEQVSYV

[8] = biological target: T1, Activin receptor type-1B (Homo sapiens) (UniProt P36896); assay: ACVR1B Invitrogen selectivity data (BI); conditions: Compound concentration 3.0 uM
T1 sequence (whole entry): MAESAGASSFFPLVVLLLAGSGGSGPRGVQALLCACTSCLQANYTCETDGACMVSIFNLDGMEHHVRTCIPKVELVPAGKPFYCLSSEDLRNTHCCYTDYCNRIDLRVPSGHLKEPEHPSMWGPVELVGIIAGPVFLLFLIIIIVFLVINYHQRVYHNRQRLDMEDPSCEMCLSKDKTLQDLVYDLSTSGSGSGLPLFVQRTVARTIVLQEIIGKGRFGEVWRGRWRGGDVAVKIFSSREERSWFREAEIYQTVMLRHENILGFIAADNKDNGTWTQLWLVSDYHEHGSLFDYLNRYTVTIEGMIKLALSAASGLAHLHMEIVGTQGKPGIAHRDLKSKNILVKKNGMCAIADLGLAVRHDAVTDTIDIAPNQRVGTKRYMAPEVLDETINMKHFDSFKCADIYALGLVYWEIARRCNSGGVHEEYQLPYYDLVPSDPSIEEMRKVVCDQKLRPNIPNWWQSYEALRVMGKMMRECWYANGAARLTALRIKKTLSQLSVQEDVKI

[9] = biological target: Insulin receptor (Homo sapiens) (UniProt P06213); assay: INSR Invitrogen selectivity data (BI); conditions: Compound concentration 3.0 uM
Chain of Insulin receptor (Homo sapiens) (P06213 28-758 limits assumed): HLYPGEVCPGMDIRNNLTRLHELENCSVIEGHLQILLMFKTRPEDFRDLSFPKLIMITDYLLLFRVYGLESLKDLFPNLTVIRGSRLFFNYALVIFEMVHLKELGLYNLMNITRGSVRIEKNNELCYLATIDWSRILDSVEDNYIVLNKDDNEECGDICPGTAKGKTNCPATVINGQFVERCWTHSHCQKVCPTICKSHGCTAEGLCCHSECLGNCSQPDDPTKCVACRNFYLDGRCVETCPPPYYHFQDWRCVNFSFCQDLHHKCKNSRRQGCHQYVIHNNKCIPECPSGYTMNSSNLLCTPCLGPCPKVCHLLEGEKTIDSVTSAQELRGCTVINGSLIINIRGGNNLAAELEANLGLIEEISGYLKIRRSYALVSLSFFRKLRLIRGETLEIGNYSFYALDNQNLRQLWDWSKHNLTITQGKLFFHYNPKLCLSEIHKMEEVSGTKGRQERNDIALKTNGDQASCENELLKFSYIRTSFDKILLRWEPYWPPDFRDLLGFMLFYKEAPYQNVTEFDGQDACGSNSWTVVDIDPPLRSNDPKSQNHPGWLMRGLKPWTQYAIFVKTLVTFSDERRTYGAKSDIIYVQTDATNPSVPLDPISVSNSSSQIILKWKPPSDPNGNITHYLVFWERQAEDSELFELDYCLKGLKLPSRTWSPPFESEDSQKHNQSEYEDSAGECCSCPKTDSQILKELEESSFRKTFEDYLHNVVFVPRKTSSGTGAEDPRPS
Chain of Insulin receptor (Homo sapiens) (P06213 763-1382 limits assumed): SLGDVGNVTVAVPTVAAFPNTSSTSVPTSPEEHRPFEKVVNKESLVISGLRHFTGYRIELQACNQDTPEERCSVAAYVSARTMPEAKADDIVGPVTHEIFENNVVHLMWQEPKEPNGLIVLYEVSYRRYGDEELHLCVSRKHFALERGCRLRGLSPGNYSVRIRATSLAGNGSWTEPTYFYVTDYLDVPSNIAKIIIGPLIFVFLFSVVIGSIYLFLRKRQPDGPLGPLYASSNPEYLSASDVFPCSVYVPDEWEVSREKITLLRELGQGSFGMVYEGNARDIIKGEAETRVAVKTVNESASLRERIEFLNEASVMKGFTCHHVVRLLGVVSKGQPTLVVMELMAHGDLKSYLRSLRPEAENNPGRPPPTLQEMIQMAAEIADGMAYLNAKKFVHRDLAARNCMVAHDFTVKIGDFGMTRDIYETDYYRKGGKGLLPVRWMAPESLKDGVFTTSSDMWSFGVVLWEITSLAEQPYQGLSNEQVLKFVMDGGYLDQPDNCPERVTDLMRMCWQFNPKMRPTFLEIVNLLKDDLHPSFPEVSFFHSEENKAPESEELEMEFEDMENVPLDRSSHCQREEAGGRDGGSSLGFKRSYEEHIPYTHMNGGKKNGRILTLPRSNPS

[10] = biological target: Casein kinase I isoform epsilon (Homo sapiens) (UniProt P49674); assay: CSNK1E Invitrogen selectivity data (BI); conditions: Compound concentration 3.0 uM
Chain of Casein kinase I isoform epsilon (Homo sapiens) (P49674 whole entry, looked up, canonical isoform): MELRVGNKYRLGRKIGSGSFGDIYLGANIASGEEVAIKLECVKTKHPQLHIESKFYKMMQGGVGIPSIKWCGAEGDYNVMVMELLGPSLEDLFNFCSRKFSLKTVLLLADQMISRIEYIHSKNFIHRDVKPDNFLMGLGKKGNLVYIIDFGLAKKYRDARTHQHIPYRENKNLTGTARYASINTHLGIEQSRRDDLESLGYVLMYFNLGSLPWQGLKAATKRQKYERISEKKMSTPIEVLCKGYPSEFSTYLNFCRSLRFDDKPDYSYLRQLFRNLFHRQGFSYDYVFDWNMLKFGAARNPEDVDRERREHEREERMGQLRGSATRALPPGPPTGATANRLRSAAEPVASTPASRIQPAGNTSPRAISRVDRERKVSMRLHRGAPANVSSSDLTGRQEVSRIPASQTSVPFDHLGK

[11] = biological target: Muscarinic acetylcholine receptor M3 (Homo sapiens) (UniProt P20309); assay: M3/H Cerep selectivity data (BI); conditions: Compound concentration 20.0 uM
Chain of Muscarinic acetylcholine receptor M3 (Homo sapiens) (P20309 whole entry, looked up, the tested form may be a part): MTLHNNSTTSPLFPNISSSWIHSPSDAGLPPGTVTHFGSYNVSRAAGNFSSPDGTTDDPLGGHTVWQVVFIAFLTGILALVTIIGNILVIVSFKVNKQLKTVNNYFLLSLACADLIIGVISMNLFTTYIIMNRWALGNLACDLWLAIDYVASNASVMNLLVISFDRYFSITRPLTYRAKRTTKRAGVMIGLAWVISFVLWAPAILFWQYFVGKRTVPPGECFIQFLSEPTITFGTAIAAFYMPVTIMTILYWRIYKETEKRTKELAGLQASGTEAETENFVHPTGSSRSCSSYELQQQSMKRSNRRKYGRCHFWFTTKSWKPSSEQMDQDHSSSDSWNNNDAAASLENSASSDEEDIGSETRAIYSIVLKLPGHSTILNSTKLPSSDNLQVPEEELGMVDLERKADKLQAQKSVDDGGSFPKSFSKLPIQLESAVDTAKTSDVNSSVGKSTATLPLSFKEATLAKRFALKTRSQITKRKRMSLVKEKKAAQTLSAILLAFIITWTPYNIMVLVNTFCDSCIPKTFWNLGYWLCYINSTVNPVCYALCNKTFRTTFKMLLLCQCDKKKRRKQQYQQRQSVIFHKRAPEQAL

[12] = biological target: Phosphatidylinositol 4-phosphate 3-kinase C2 domain-containing subunit beta (Homo sapiens) (UniProt O00750); assay: PIK3C2B Invitrogen selectivity data (BI); conditions: Compound concentration 3.0 uM
[13] = tested on: Hepatocyte growth factor receptor (Homo sapiens), P08581 [M1250T]; assay: MET M1250T Invitrogen selectivity data (BI); conditions: Compound concentration 3.0 uM
[14] = biological target: Sphingosine kinase 2 (Homo sapiens) (UniProt Q9NRA0); assay: SPHK2 Invitrogen selectivity data (BI); conditions: Compound concentration 3.0 uM
[15] = biological target: L-type Ca2+ channel (dihydropyridine site), Cav1.2 alpha-1C (Rattus norvegicus, UniProt P22002); assay: CA+/DHPSI/R Cerep selectivity data (BI); parameters: mode of action inhibitor; conditions: rat brain, probe [3H](+)PN200-110, compound concentration 20 uM, read-out: % Ctrl
[16] = biological target: Sigma non-opioid intracellular receptor 1 (Homo sapiens) (UniProt Q99720); assay: SIGMA/NS Cerep selectivity data (BI); conditions: filed as agonist, Compound concentration 20.0 uM
Chain of Sigma non-opioid intracellular receptor 1 (Homo sapiens) (Q99720 whole entry): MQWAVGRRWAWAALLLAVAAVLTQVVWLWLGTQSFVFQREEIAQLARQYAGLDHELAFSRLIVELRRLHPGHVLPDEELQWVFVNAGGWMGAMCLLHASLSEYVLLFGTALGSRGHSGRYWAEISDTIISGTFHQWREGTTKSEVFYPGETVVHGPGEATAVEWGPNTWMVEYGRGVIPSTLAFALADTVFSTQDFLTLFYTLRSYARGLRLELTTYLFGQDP

[17] = biological target: T2, Beta-adrenergic receptor kinase 1 (Homo sapiens) (UniProt P25098); assay: ADRBK1 Invitrogen selectivity data (BI); conditions: Compound concentration 3.0 uM
T2 sequence (whole entry): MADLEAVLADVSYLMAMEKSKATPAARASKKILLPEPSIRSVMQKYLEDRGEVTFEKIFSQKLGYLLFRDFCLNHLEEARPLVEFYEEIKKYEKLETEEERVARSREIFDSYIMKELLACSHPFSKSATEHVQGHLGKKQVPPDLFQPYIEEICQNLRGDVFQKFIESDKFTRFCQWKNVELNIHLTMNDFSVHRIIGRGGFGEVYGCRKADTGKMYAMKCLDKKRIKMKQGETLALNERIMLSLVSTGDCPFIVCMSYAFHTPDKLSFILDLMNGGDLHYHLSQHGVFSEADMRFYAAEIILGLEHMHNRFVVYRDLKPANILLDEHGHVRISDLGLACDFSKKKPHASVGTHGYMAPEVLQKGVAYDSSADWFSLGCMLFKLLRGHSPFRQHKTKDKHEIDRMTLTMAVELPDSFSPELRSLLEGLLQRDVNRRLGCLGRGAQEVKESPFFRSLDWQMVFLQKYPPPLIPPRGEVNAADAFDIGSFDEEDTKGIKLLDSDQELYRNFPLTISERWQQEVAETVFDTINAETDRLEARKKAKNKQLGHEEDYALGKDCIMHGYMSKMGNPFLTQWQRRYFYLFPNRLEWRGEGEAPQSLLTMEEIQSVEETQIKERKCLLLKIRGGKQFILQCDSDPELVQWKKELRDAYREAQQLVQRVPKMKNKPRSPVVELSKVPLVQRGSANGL

[18] = biological target: PAS domain-containing serine/threonine-protein kinase (Homo sapiens) (UniProt Q96RG2); assay: PASK Invitrogen selectivity data (BI); conditions: Compound concentration 3.0 uM
[19] = biological target: T3, Inhibitor of nuclear factor kappa-B kinase subunit beta (Homo sapiens) (UniProt O14920); assay: IKBKB Invitrogen selectivity data (BI); conditions: Compound concentration 3.0 uM
T3 sequence (whole entry): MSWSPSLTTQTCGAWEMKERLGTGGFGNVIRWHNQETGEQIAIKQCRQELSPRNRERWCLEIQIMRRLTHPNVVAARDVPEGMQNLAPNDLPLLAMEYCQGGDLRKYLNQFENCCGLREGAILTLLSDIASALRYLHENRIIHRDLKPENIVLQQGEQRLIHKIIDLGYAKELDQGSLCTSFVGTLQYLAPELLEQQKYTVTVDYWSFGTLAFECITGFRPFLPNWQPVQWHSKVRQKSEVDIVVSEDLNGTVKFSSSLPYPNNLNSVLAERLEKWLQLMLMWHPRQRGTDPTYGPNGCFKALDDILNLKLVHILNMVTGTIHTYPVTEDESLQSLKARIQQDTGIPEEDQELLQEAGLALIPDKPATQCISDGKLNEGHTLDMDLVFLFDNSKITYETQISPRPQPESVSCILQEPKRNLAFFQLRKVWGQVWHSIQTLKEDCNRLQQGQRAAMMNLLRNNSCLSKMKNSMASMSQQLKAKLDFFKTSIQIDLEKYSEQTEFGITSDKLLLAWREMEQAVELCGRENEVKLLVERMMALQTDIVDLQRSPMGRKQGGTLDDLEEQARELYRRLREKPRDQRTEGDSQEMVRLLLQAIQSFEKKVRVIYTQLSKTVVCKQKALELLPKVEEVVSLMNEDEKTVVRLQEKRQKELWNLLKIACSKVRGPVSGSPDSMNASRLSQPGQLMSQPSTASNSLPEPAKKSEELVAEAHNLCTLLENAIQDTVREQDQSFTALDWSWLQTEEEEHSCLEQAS

Chain of MAP kinase-interacting serine/threonine-protein kinase 2 (Homo sapiens) (Q9HBH9 whole entry, looked up): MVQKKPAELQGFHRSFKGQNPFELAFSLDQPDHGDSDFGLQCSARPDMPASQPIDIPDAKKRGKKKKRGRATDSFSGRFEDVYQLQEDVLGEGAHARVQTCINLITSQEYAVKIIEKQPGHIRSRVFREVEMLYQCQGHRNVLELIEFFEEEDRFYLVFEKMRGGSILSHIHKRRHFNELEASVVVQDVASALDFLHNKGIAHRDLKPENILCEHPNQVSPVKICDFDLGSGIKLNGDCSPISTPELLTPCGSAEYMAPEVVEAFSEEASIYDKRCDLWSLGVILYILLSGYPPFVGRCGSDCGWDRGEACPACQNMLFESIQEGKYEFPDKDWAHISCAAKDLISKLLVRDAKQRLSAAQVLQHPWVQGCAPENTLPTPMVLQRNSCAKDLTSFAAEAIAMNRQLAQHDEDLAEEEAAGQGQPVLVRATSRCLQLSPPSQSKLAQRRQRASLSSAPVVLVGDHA
Chain of 5-hydroxytryptamine receptor 6 (Homo sapiens) (P50406 whole entry): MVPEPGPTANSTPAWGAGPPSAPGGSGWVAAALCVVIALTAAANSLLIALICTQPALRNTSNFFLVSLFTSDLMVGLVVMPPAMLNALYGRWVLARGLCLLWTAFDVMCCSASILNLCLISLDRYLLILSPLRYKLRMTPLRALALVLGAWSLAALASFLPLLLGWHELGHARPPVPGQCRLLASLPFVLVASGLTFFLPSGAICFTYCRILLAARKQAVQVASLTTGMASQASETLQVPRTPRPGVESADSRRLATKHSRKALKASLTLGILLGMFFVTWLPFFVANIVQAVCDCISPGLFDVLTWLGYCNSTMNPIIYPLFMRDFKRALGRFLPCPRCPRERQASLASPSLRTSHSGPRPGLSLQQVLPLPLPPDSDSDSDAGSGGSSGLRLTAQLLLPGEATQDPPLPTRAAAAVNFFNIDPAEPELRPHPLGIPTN

SMILES: CN(C)C(=O)Cn1cc(-c2nc(C3(c4ccc(-c5cnc(N)nc5)cc4)CC3)no2)cn1 [BI 0153]
- inhibition [1]: -7.48%

SMILES: CN(C)C(=O)Cn1cc(-c2nc([C@@](C)(c3ccc(-c4cnc(N)nc4)cc3)C3CC3)no2)cn1 [BI 665915]
- residual activity [2]: 99%
- residual activity [3]: 100%
- residual activity [4]: 99%
- residual activity [5]: 89.5%
- residual activity [6]: 100%
- residual activity [7]: 97%
- residual activity [8]: 104%
- residual activity [9]: 100%
- residual activity [10]: 95%
- residual activity [11]: 83%
- residual activity [12]: 108%
- residual activity [13]: 105%
- residual activity [14]: 97%
- activity at 20 µM [15]: 85% (not active)
- residual activity [16]: 99%
- residual activity [17]: 98.5%
- residual activity [18]: 100%
- residual activity [19]: 96.5%
